Read-outs that look alike come from different tables or passages of the source.

Test [1] concerns LoVo Colon cell line. Put plainly: Cytotoxicity assay using LoVo colon cell line, SRB. Type of test: cell-based. The settings on record: read-out: Inhibition of LoVo. Summed up:
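LoVo cells (4000/well, RPMI 1640 with 10% FBS, 37 °C, 7% CO2) seeded overnight, then exposed 4 days to serial dilutions spanning 5 pM-20 μM or 170 pg/ml-10 μg/ml. Survival by SRB staining; IC50 from curves relative to untreated controls.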

Test [2] has as its system 80S14 (p21-deficient) cells. Put plainly: Cytotoxicity assay using isogenic cell lines: IC50 in 80S14 (p21-deficient) cells, SRB. Format: cell-based, human. The essentials:
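80S14 (p21-deficient) cells seeded at 12,000 cells/well overnight, then exposed 5 days at 37 °C to serial dilutions (5 pM–50 μM or 170 pg/ml–10 μg/ml). TCA-fixed, sulforhodamine B-stained, absorbance at 560 nm; IC50 taken from cytotoxicity curves versus untreated controls.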

Where [3] appears, read: Homo sapiens, 96 h, Cellular activity in LoVo cell, 4 days incubation, SRB.
Setting [4] is: Homo sapiens, 120 h, 80S14 (p21-deficient) cells, 5 days, SRB, class symbols, read-out: IC50 for 80S14.
Where [5] appears, read: Homo sapiens, 96 h, LoVo colon cells, 4 days incubation, SRB.
Setting [6] is: Homo sapiens, 120 h, 80S14 p21-deficient cells, 5 days incubation, SRB, read-out: IC50 for 80SI4.
The mark [7] stands for this setting: Cellular activity in LoVo cell, 4 days incubation, SRB.
[8] abbreviates: 80S14 (p21-deficient) cells, 5 days, SRB, class symbols, read-out: IC50 for 80S14.

Regarding `CCCCNC(=S)Nc1cccc(-c2ccnc3c(C(=O)c4cccs4)cnn23)c1` [Example 364, N-Butyl-N′-{3-[3-(thien-2-ylcarbonyl)pyrazolo[1,5-a]pyrimidin-7-yl]phenyl}thiourea], the IC50 in test [1] (setting [3]) is below 0.1 µM; in test [2] (setting [4]), below 1 µM.
For `Cc1ccccc1CNc1cccc(-c2ccnc3c(C(=O)c4cccs4)cnn23)c1` [Example 377, (7-{3-[(2-Methylbenzyl)amino]phenyl}pyrazolo[1,5-a]pyrimidin-3-yl)(thien-2-yl)methanone], in that order: 0.1 to 1 µM and 1 to 10 µM.
For `O=C(c1cccs1)c1cnn2c(-c3cccc(-c4ccc(CO)cc4)c3)ccnc12` [Example 452, {7-[4′-(Hydroxymethyl)-1,1′-biphenyl-3-yl]pyrazolo[1,5-a]pyrimidin-3-yl}(thien-2-yl)methanone] the same measures were below 0.1 µM and below 1 µM.
Consider `Cc1cc(-c2cccc(NC(=O)NC(C)C)c2)n2ncc(C(=O)c3cccs3)c2n1` [Example 207, N-isopropyl-N′-{3-[5-methyl-3-(thien-2-ylcarbonyl)pyrazolo[1,5-a]pyrimidin-7-yl]phenyl}urea], for which the IC50 in test [1] (setting [5]) is 0.1 to 1 µM; in test [2] (setting [6]), below 1 µM.
As to `Cn1cccc1C(=O)Nc1cccc(-c2ccnc3c(C(=O)c4cccs4)cnn23)c1` [Example 387, 1-Methyl-N-{3-[3-(thien-2-ylcarbonyl)pyrazolo[1,5-a]pyrimidin-7-yl]phenyl}-1H-pyrrole-2-carboxamide], the figures for the IC50 in test [1] (setting [3]) and in test [2] (setting [4]) were below 0.1 µM and below 1 µM, respectively.
Turning to “(7-{3-[1-(Pyridin-2-ylmethyl)-1H-pyrazol-3-yl]phenyl}pyrazolo[1,5-a]pyrimidin-3-yl)(thien-2-yl)methanone [Example 516]”, the IC50 in test [1] (setting [7]) is below 0.1 µM; in test [2] (setting [8]) it was below 1 µM.
As to `O=C(c1cccs1)c1cnn2c(-c3ccc(F)c(-c4ccc(CO)cc4)c3)ccnc12` [Example 455, {7-[6-Fluoro-4′-(hydroxymethyl)-1,1′-biphenyl-3-yl]pyrazolo[1,5-a]pyrimidin-3-yl}(thien-2-yl)methanone], the values for the IC50 in test [1] (setting [3]) and in test [2] (setting [4]) were 0.1 to 1 µM and 1 to 10 µM, respectively.
For `O=C(c1cccs1)c1cnn2c(-c3cccc(-c4nnn(CCN5CCOCC5)n4)c3)ccnc12` [Example 507, (7-{3-[2-(2-Morpholin-4-ylethyl)-2H-tetraazol-5-yl]phenyl}pyrazolo[1,5-a]pyrimidin-3-yl)(thien-2-yl)methanone] the same measures were 0.1 to 1 µM and 1 to 10 µM.
For `CC/C=C(\C)CNc1cccc(-c2ccnc3c(C(=O)c4cccs4)cnn23)c1` [Example 426, [7-(3-{[(2E)-2-Methylpent-2-enyl]amino}phenyl)pyrazolo[1,5-a]pyrimidin-3-yl](thien-2-yl)methanone], in that order: 0.1 to 1 µM and 1 to 10 µM.
For `CCC(C)C(C)CNc1cccc(-c2ccnc3c(C(=O)c4cccs4)cnn23)c1` (stereo not shown) [Example 430, (7-{3-[(2,3-Dimethylpentyl)amino]phenyl}pyrazolo[1,5-a]pyrimidin-3-yl)(thien-2-yl)methanone] the same measures were 0.1 to 1 µM and 1 to 10 µM.
`CC(C)CC(=O)Nc1cccc(-c2ccnc3c(-c4cccc(-c5ccccc5)c4)cnn23)c1` [Example 485, N-{3-[3-(1,1′-Biphenyl-3-yl)pyrazolo[1,5-a]pyrimidin-7-yl]phenyl}-3-methylbutanamide]: the values for the IC50 in test [1] (setting [3]) and in test [2] (setting [4]) were 1 to 20 µM and 10 to 50 µM, respectively.
For `O=C(c1cccs1)c1cnn2c(-c3cccc(-c4ccc(CNCCN5CCOCC5)cc4)c3)ccnc12` [Example 461, [7-(4′-{[(2-Morpholin-4-ylethyl)amino]methyl}-1,1′-biphenyl-3-yl)pyrazolo[1,5-a]pyrimidin-3-yl](thien-2-yl)methanone], in that order: 0.1 to 1 µM and 1 to 10 µM.
For `CN(C)c1cccc(-c2cccc(-c3ccnc4c(C(=O)c5cccs5)cnn34)c2)c1` [Example 453, {7-[3′-(Dimethylamino)-1,1′-biphenyl-3-yl]pyrazolo[1,5-a]pyrimidin-3-yl}(thien-2-yl)methanone] the same measures were 0.1 to 1 µM and 1 to 10 µM.
For `O=C(c1cccs1)c1cnn2c(-c3cccc(-c4nnn(CCN5CCCCC5)n4)c3)ccnc12` [Example 512, (7-{3-[2-(2-Piperidin-1-ylethyl)-2H-tetraazol-5-yl]phenyl}pyrazolo[1,5-a]pyrimidin-3-yl)(thien-2-yl)methanone], in that order: 0.1 to 1 µM and 1 to 10 µM.
As to `O=C(Nc1cccc(-c2ccnc3c(C(=O)c4cccs4)cnn23)c1)OCC1CCC1` [Example 174, cyclobutylmethyl 3-[3-(thien-2-ylcarbonyl)pyrazolo[1,5-a]pyrimidin-7-yl]phenylcarbamate], the IC50 in test [1] (setting [5]) is below 0.1 µM; in test [2] (setting [6]) it was below 1 µM.
For `COc1ccc(-c2cnn3c(-c4cccc(NC(=O)CC(C)C)c4)ccnc23)cc1C=O` [Example 484, N-{3-[3-(3-Formyl-4-methoxyphenyl)pyrazolo[1,5-a]pyrimidin-7-yl]phenyl}-3-methylbutanamide], the IC50 fell in the range of 1 to 20 µM in test [1] (setting [3]) and 1 to 10 µM in test [2] (setting [4]).
Consider `CCCCOC(=O)Nc1cccc(-c2cc(C)nc3c(C(=O)c4cccs4)cnn23)c1` [Example 195, butyl 3-[5-methyl-3-(thien-2-ylcarbonyl)pyrazolo[1,5-a]pyrimidin-7-yl]phenylcarbamate], for which the IC50 in test [1] (setting [5]) was below 0.1 µM; in test [2] (setting [6]), below 1 µM.
For `Cc1cc(-c2cccc(NC(=O)OCC(C)(C)C)c2)n2ncc(C(=O)c3cccs3)c2n1` [Example 200, neopentyl 3-[5-methyl-3-(thien-2-ylcarbonyl)pyrazolo[1,5-a]pyrimidin-7-yl]phenylcarbamate] the same measures were 0.1 to 1 µM and below 1 µM.
As to `CC(C)CC(=O)Nc1cncc(-c2ccnc3c(C(=O)c4cccs4)cnn23)c1` [Example 324, 3-Methyl-N-{5-[3-(2-thienylcarbonyl)pyrazolo[1,5-a]pyrimidin-7-yl]-3-pyridinyl}butanamide], the IC50 is 0.1 to 1 µM in test [1] (setting [3]) and 1 to 10 µM in test [2] (setting [4]).
Take `CCCCOC(=O)Nc1cccc(-c2ccnc3c(C(=O)c4cccs4)cnn23)c1` [Example 13, butyl 3-[3-(thien-2-ylcarbonyl)pyrazolo[1,5-a]pyrimidin-7-yl]phenylcarbamate]: the IC50 is below 0.1 µM in test [1] (Homo sapiens, LoVo, 96 h) and below 1 µM in test [2] (Homo sapiens, 80S14, 120 h, read-out: IC50 for 80SI4 (uM)).
As for `O=C(c1cccs1)c1cnn2c(-c3cccc(NCc4ccco4)c3)ccnc12` [Example 367, (7-{3-[(2-Furylmethyl)amino]phenyl}pyrazolo[1,5-a]pyrimidin-3-yl)(thien-2-yl)methanone], the IC50 lay within 0.1 to 1 µM in test [1] (setting [3]) and 1 to 10 µM in test [2] (setting [4]).
For the molecule `O=C(c1cccs1)c1cnn2c(-c3cccc(NCc4ccoc4)c3)ccnc12` [Example 369, (7-{3-[(3-Furylmethyl)amino]phenyl}pyrazolo[1,5-a]pyrimidin-3-yl)(thien-2-yl)methanone], the IC50 in test [1] (setting [3]) lay within 0.1 to 1 µM; in test [2] (setting [4]) it was 1 to 10 µM.
Consider “tert-Butyl 4-[2-oxo-2-({3-[3-(thien-2-ylcarbonyl)pyrazolo[1.5-a]pyrimidin-7-yl]phenyl}amino)ethyl]piperidine-1-carboxylate [Example 392]”, for which the results for the IC50 in test [1] (setting [7]) and in test [2] (setting [8]) were below 0.1 µM and below 1 µM, respectively.
Regarding `CN(C)C(=O)Nc1cccc(-c2ccnc3c(C(=O)c4cccs4)cnn23)c1` [Example 46, N,N-dimethyl-N′-{3-[3-(thien-2-ylcarbonyl)pyrazolo[1,5-a]pyrimidin-7-yl]phenyl}urea], the values for the IC50 in test [1] (setting [5]) and in test [2] (setting [6]) were 1 to 2 µM and 1 to 10 µM, respectively.
On to `O=C(c1cccs1)c1cnn2c(-c3cccc(-c4nnn(Cc5cccnc5)n4)c3)ccnc12` [Example 503, (7-{3-[2-(Pyridin-3-ylmethyl)-2H-tetraazol-5-yl]phenyl}pyrazolo[1,5-a]pyrimidin-3-yl)(thien-2-yl)methanone], for which the IC50 in test [1] (setting [3]) was 0.1 to 1 µM; in test [2] (setting [4]) it was below 1 µM.
On to `CC(C)CC(=O)Nc1cc(-c2ccnc3c(C(=O)c4cccs4)cnn23)ccc1F` [Example 342, N-{2-Fluoro-5-[3-(thien-2-ylcarbonyl)pyrazolo[1,5-a]pyrimidin-7-yl]phenyl}-3-methylbutanamide], for which the IC50 was below 0.1 µM in test [1] (Homo sapiens, LoVo, 96 h) and below 1 µM in test [2] (Homo sapiens, 80S14, 120 h, read-out: IC50 for 80S14 (uM)).
As to `CC(C)CC(=O)Nc1cccc(-c2ccnc3c(-c4ccc5[nH]ccc5c4)cnn23)c1` [Example 466, N-{3-[3-(1H-Indol-5-yl)pyrazolo[1,5-a]pyrimidin-7-yl]phenyl}-3-methylbutanamide], the IC50 in test [1] (setting [3]) was below 0.1 µM; in test [2] (setting [4]), 1 to 10 µM.
For `O=C(Nc1cccc(-c2ccnc3c(C(=O)c4cccs4)cnn23)c1)OCc1ccccn1` [Example 429, Pyridin-2-ylmethyl 3-[3-(thien-2-ylcarbonyl)pyrazolo[1,5-a]pyrimidin-7-yl]phenylcarbamate], in that order: 0.1 to 1 µM and 1 to 10 µM.
For `O=C(c1cccs1)c1cnn2c(-c3cccc(NCC4CC=CCC4)c3)ccnc12` (stereo not shown) [Example 436, (7-{3-[(cyclohex-3-en-1-ylmethyl)amino]phenyl}pyrazolo[1,5-a]pyrimidin-3-yl)-(thien-2-yl)-methanone] the same measures were below 0.1 µM and below 1 µM.
